Where two headings read alike, the source gives them in different places.
How the values were obtained:
[1] = test system: LCMV NP and L proteins (replication and transcription of RNA analog); format: cell-based
LCMV S RNA and NP mRNA = format: cell-based
[2] = test system: LCMV Armstrong strain (Arm53b); assay: organism not typed; format: cell-based; conditions: for EC50: Vero
LCMV = conditions: cited from earlier work
[3] = read-out: 50% effective concentration (EC50)
[4] = read-out: Activity (EC50 class)

| Structure (SMILES) | EC50 [2, 4] | also measured |
| --- | --- | --- |
| c1ccc2[nH]c(-c3nc4ccccc4[nH]3)nc2c1 [Compound 1, 1H, 1′H-[2,2′]Bibenzoimidazolyl] | < 1 µM | CC50 (in vitro): > 25 µM; CAT reporter activity [1]: No CAT activity was observed; synthesis of viral S RNA and NP mRNA relative to untreated controls (LCMV S RNA and NP mRNA): dramatically suppressed; screening result in compound library screen [2]: hit; EC50 [2, 3]: 0.08 µM |
| Cc1cc2nc(-c3nc4cc(C)c(C)cc4[nH]3)[nH]c2cc1C [Compound 2, 5,6,6′,6′-Tetramethyl-1H, 1′H-[2,2′]bibenzoimidazolyl] | 1 to 10 µM |  |
| Cn1c(-c2nc3ccccc3n2C)nc2ccccc21 [Compound 3, 1,1′-Dimethyl-1H,1′H-[2,2′]bibenzoimidazolyl] | > 25 µM |  |
| O=[N+]([O-])c1ccc2nc(-c3nc4ccc([N+](=O)[O-])cc4[nH]3)[nH]c2c1 [Compound 5, 6,6′-Dinitro-1H,1′H-[2,2′]bibenzoimidazolyl] | > 25 µM |  |
| Fc1cccc2[nH]c(-c3nc4c(F)cccc4[nH]3)nc12 [Compound 6, 4,4′-Difluoro-1H,1′H-[2,2′]bibenzoimidazolyl] | < 1 µM | EC50 [2, 3]: 0.006 µM |
| Fc1ccc2[nH]c(-c3nc4cc(F)ccc4[nH]3)nc2c1 [Compound 7, 5,5′-Difluoro-1H,1′H-[2,2′]bibenzoimidazolyl] | < 1 µM | EC50 [2, 3]: 0.063 µM |
| Clc1ccc2[nH]c(-c3nc4cc(Cl)ccc4[nH]3)nc2c1 [Compound 8, 5,5′-Dichloro-1H,1′H-[2,2′]bibenzoimidazolyl] | 1 to 10 µM |  |
| Brc1ccc2[nH]c(-c3nc4cc(Br)ccc4[nH]3)nc2c1 [Compound 9, 5,5′-Dibromo-1H,1′H-[2,2′]bibenzoimidazolyl] | 1 to 10 µM |  |
| Cc1cccc2[nH]c(-c3nc4c(C)cccc4[nH]3)nc12 [Compound 10, 4,4′-Dimethyl-1H,1′H-[2,2′]bibenzoimidazolyl] | > 25 µM |  |
| Cc1ccc2[nH]c(-c3nc4cc(C)ccc4[nH]3)nc2c1 [Compound 11, 5,5′-Dimethyl-1H,1′H-[2,2′]bibenzoimidazolyl] | > 25 µM |  |
| COc1cccc2[nH]c(-c3nc4c(OC)cccc4[nH]3)nc12 [Compound 12, 4,4′-Dimethoxy-1H,1′H-[2,2′]bibenzoimidazolyl] | > 25 µM |  |
| COc1ccc2[nH]c(-c3nc4cc(OC)ccc4[nH]3)nc2c1 [Compound 13, 5,5′-Dimethoxy-1H,1′H-[2,2′]bibenzoimidazolyl] | 10 to 25 µM |  |
| COC(=O)c1cccc2[nH]c(-c3nc4c(C(=O)OC)cccc4[nH]3)nc12 [Compound 14, 1H,1′H-[2,2′]Bibenzoimidazolyl-4,4′-dicarboxylic acid dimethyl ester] | > 25 µM |  |
| COC(=O)c1ccc2[nH]c(-c3nc4cc(C(=O)OC)ccc4[nH]3)nc2c1 [Compound 15, 1H,1′H-[2,2′]Bibenzoimidazolyl-5,5′-dicarboxylic acid dimethyl ester] | > 25 µM |  |
| c1ccc(-c2cccc3[nH]c(-c4nc5c(-c6ccccc6)cccc5[nH]4)nc23)cc1 [Compound 16, 4,4′-Diphenyl-1H,1′H-[2,2′]bibenzoimidazolyl] | > 25 µM | melting point: 247 to 250 °C (dec.) |
| Fc1ccc2[nH]c(-c3nc4c(F)c(F)ccc4[nH]3)nc2c1F [Compound 17, 4,5,4′,5′-Tetrafluoro-1H,1′H-[2,2′]bibenzoimidazolyl] | < 1 µM |  |
| Fc1cc(F)c2nc(-c3nc4c(F)cc(F)cc4[nH]3)[nH]c2c1 [Compound 18, 4,6,4′,6′-Tetrafluoro-1H,1′H-[2,2′]bibenzoimidazolyl] | < 1 µM |  |
| Fc1cc2nc(-c3nc4cc(F)c(F)cc4[nH]3)[nH]c2cc1F [Compound 19, 5,6,5′,6′-Tetrafluoro-1H,1′H-[2,2′]bibenzoimidazolyl] | < 1 µM |  |
| c1cnc2nc(-c3nc4ncccc4[nH]3)[nH]c2c1 [Compound 20, 1H,1′H-[2,2′]Bi[imidazo[4,5 b]pyridinyl]] | < 1 µM |  |
| c1cc2nc(-c3nc4ccncc4[nH]3)[nH]c2cn1 [Compound 21, 3H,3′H-[2,2′]Bi[imidazo[4,5 c]pyridinyl]] | 10 to 25 µM | melting point: > 300 °C |
| NC(=O)c1ncn([C@@H]2O[C@H](CO)[C@@H](O)[C@H]2O)n1 [ribavirin] |  | antiviral activity against LCMV in vitro (LCMV): limited antiviral activity |

Reference: patent US8623347B2 (priority 2008, dated 2014)
